Measurements from article PMC10648852, “Molecular drivers of resistance to sulbactam-durlobactam in contemporary clinical isolates of Acinetobacter baumannii” (Antimicrobial Agents and Chemotherapy, 2023).

Key:
Test in all cases: microbe, parasite or virus in culture
[1] = tested on: ABC clinical isolates with SUL-DUR MIC > 4 µg/mL; assay type: cell-based, Acinetobacter baumannii-calcoaceticus complex
Summary of the method: (§1)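 Broth microdilution MICs following CLSI methods, interpreted with CLSI breakpoints where available. Sulbactam tested as twofold dilutions combined with fixed 4 µg/mL durlobactam.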

[2] = tested on: A. baumannii clinical isolates; assay type: cell-based
Summary of the method: as §1

[3] = tested on: A. nosocomialis clinical isolate; assay type: cell-based; conditions: isolate ARC7023 (IHMA 2118812), France, BSI, 2019
Summary of the method: as §1

[4] = tested on: A. pittii clinical isolates; assay type: cell-based
Summary of the method: as §1

## NCC[C@H](O)C(=O)N[C@@H]1C[C@H](N)[C@@H](O[C@H]2O[C@H](CN)[C@@H](O)[C@H](O)[C@H]2O)[C@H](O)[C@H]1O[C@H]1O[C@H](CO)[C@@H](O)[C@H](N)[C@H]1O [AMK]
[1]
  MIC50: >64 µg/mL
  MIC90: >64 µg/mL
  MIC Max: >64 µg/mL
  MIC Min: 2 µg/mL
[1]; 64 non-clonal ABC isolates, 2023 CLSI breakpoints plus FDA breakpoint of 4 µg/mL for SUL-DUR
  %NS (% non-susceptibility): 75%
[2]; isolate ARC6644 (IHMA 1420327), Mexico, UTI, 2016
  MIC: >64 µg/mL
[2]; isolate ARC6645 (IHMA 1435703), France, UTI, 2016
  MIC: 2 µg/mL
[2]; isolate ARC6646 (IHMA 1484127), United States, RTI, 2016
  MIC: >64 µg/mL
[2]; isolate ARC6647 (IHMA 1386786), Argentina, RTI, 2016
  MIC: >64 µg/mL
[2]; isolate ARC6648 (IHMA 1407634), Spain, RTI, 2016
  MIC: 4 µg/mL
[2]; isolate ARC6650 (IHMA 1457337), Argentina, RTI, 2016
  MIC: 16 µg/mL
[2]; isolate ARC6652 (IHMA 1465642), Belgium, RTI, 2016
  MIC: 4 µg/mL
[2]; isolate ARC6653 (IHMA 1308777), Vietnam, RTI, 2016
  MIC: >64 µg/mL
[2]; isolate ARC6799 (IHMA 1562935), Spain, UTI, 2017
  MIC: 64 µg/mL
[2]; isolate ARC6800 (IHMA 1557526), Turkey, RTI, 2017
  MIC: >64 µg/mL
[2]; isolate ARC6801 (IHMA 1662094), Thailand, RTI, 2017
  MIC: 32 µg/mL
[2]; isolate ARC6802 (IHMA 1557073), Spain, UTI, 2017
  MIC: >64 µg/mL
[2]; isolate ARC6803 (IHMA 1589408), Belgium, UTI, 2017
  MIC: 4 µg/mL
[2]; isolate ARC6805 (IHMA 1558650), United States, RTI, 2017
  MIC: >64 µg/mL
[2]; isolate ARC6808 (IHMA 1557168), Spain, RTI, 2017
  MIC: 2 µg/mL
[2]; isolate ARC6809 (IHMA 1699528), Guatemala, RTI, 2017
  MIC: 32 µg/mL
[2]; isolate ARC6810 (IHMA 1699548), Guatemala, RTI, 2017
  MIC: >64 µg/mL
[2]; isolate ARC6812 (IHMA 1699530), Guatemala, RTI, 2017
  MIC: 4 µg/mL
[2]; isolate ARC6813 (IHMA 1699543), Guatemala, UTI, 2017
  MIC: 32 µg/mL
[2]; isolate ARC6814 (IHMA 1699512), Guatemala, RTI, 2017
  MIC: >64 µg/mL
[2]; isolate ARC6815 (IHMA 1699513), Guatemala, RTI, 2017
  MIC: 64 µg/mL
[2]; isolate ARC6816 (IHMA 1699521), Guatemala, RTI, 2017
  MIC: >64 µg/mL
[2]; isolate ARC6817 (IHMA 1699523), Guatemala, RTI, 2017
  MIC: 16 µg/mL
[2]; isolate ARC6818 (IHMA 1683261), Thailand, RTI, 2017
  MIC: 2 µg/mL
[2]; isolate ARC6819 (IHMA 1683267), Thailand, RTI, 2017
  MIC: >64 µg/mL
[2]; isolate ARC6820 (IHMA 1647876), Argentina, RTI, 2017
  MIC: 4 µg/mL
[2]; isolate ARC6821 (IHMA 1699517), Guatemala, RTI, 2017
  MIC: 2 µg/mL
[2]; isolate ARC6822 (IHMA 1637626), Guatemala, RTI, 2017
  MIC: 8 µg/mL
[2]; isolate ARC6823 (IHMA 1620872), Greece, SSSI, 2017
  MIC: >64 µg/mL
[2]; isolate ARC6824 (IHMA 1625487), Argentina, BSI, 2017
  MIC: 64 µg/mL
[2]; isolate ARC6937 (IHMA 1562926), Spain, UTI, 2017
  MIC: 64 µg/mL
[2]; isolate ARC6950 (IHMA 1820064), Israel, RTI, 2018
  MIC: >64 µg/mL
[2]; isolate ARC6953 (IHMA 1909827), Turkey, IAI, 2018
  MIC: 8 µg/mL
[2]; isolate ARC6954 (IHMA 1838192), Guatemala, SSSI, 2018
  MIC: 16 µg/mL
[2]; isolate ARC6955 (IHMA 1825425), United States, RTI, 2018
  MIC: 64 µg/mL
[2]; isolate ARC7008 (IHMA 2009813), Thailand, BSI, 2019
  MIC: >64 µg/mL
[2]; isolate ARC7009 (IHMA 2043611), United States, UTI, 2019
  MIC: >64 µg/mL
[2]; isolate ARC7010 (IHMA 2043398), United States, RTI, 2019
  MIC: >64 µg/mL
[2]; isolate ARC7011 (IHMA 2104553), Germany, RTI, 2019
  MIC: >64 µg/mL
[2]; isolate ARC7012 (IHMA 2010001), Thailand, RTI, 2019
  MIC: >64 µg/mL
[2]; isolate ARC7013 (IHMA 1962831), Argentina, RTI, 2019
  MIC: >64 µg/mL
[2]; isolate ARC7014 (IHMA 2045328), Guatemala, IAI, 2019
  MIC: >64 µg/mL
[2]; isolate ARC7015 (IHMA 2045327), Guatemala, UTI, 2019
  MIC: 32 µg/mL
[2]; isolate ARC7016 (IHMA 2148441), Brazil, BSI, 2019
  MIC: >64 µg/mL
[2]; isolate ARC7017 (IHMA 2148446), Brazil, BSI, 2019
  MIC: 64 µg/mL
[2]; isolate ARC7018 (IHMA 2045454), Guatemala, IAI, 2019
  MIC: 32 µg/mL
[2]; isolate ARC7019 (IHMA 2114463), Thailand, RTI, 2019
  MIC: >64 µg/mL
[2]; isolate ARC7020 (IHMA 2045326), Guatemala, RTI, 2019
  MIC: >64 µg/mL
[2]; isolate ARC7021 (IHMA 1966347), Guatemala, RTI, 2019
  MIC: 64 µg/mL
[2]; isolate ARC7022 (IHMA 2045319), Guatemala, IAI, 2019
  MIC: >64 µg/mL
[2]; isolate ARC7024 (IHMA 2059448), Turkey, RTI, 2019
  MIC: >64 µg/mL
[2]; isolate ARC7025 (IHMA 2002121), Spain, RTI, 2019
  MIC: 2 µg/mL
[2]; isolate ARC7026 (IHMA 2104494), Guatemala, BSI, 2019
  MIC: 64 µg/mL
[2]; isolate ARC7082 (IHMA 2160640), Belgium, BSI, 2020
  MIC: >64 µg/mL
[2]; isolate ARC7083 (IHMA 2163687), United States, RTI, 2020
  MIC: >64 µg/mL
[2]; isolate ARC7084 (IHMA 2189596), Germany, RTI, 2020
  MIC: >64 µg/mL
[2]; isolate ARC7085 (IHMA 2205747), Guatemala, IAI, 2020
  MIC: >64 µg/mL
[2]; isolate ARC7086 (IHMA 2207563), Israel, RTI, 2020
  MIC: >64 µg/mL
[2]; isolate ARC7088 (IHMA 2215554), Turkey, BSI, 2020
  MIC: >64 µg/mL
[2]; isolate ARC7089 (IHMA 2240345), Argentina, BSI, 2020
  MIC: 2 µg/mL
[2]; isolate ARC7090 (IHMA 2244410), Poland, RTI, 2020
  MIC: >64 µg/mL
[2]; isolate ARC7091 (IHMA 2244564), Australia, RTI, 2020
  MIC: 16 µg/mL
[2]; isolate ARC7092 (IHMA 2258772), United States, BSI, 2020
  MIC: >64 µg/mL
[2]; isolate ARC7093 (IHMA 2258783), United States, RTI, 2020
  MIC: >64 µg/mL
[2]; isolate ARC7094 (IHMA 2296423), Turkey, RTI, 2020
  MIC: 64 µg/mL
[2]; isolate ARC7095 (IHMA 2320843), Turkey, BSI, 2020
  MIC: >64 µg/mL
[2]; isolate ARC7156 (IHMA 2455450), Greece, RTI, 2021
  MIC: >64 µg/mL
[2]; isolate ARC7158 (IHMA 2523738), Italy, BSI, 2021
  MIC: >64 µg/mL
[2]; isolate ARC7159 (IHMA 2456229), Malaysia, RTI, 2021
  MIC: >64 µg/mL
[2]; isolate ARC7160 (IHMA 2458626), Thailand, RTI, 2021
  MIC: >64 µg/mL
[2]; isolate ARC7161 (IHMA 2429252), Ukraine, RTI, 2021
  MIC: >64 µg/mL
[2]; isolate ARC7162 (IHMA 2411847), United States, BSI, 2021
  MIC: >64 µg/mL
[2]; isolate ARC7163 (IHMA 2477704), United States, BSI, 2021
  MIC: >64 µg/mL
[3]
  MIC: 4 µg/mL
[4]; isolate ARC6949 (IHMA 1898982), Romania, RTI, 2018
  MIC: >64 µg/mL
[4]; isolate ARC6951 (IHMA 1776233), Philippines, RTI, 2018
  MIC: 32 µg/mL
[4]; isolate ARC6952 (IHMA 1899008), Romania, RTI, 2018
  MIC: >64 µg/mL
[4]; isolate ARC7087 (IHMA 2212062), Colombia, BSI, 2020
  MIC: 8 µg/mL
